From patent publication US4423221A, “7-Carboethoxy-morphinan-6-one compounds” (SISA Pharmaceutical Laboratories, Inc., priority 1982, dated 1983) come the findings set out here.

Each structure is given as a SMILES string.

For one experiment, the system named is mice. The experiment can be described thus: Acetic acid mouse writhing test (analgesic effects). It counts as in vivo, male CD-1 mice. Particulars: subcutaneous, 0.5% acetic acid i.p. 15 min post drug, writhes counted over 20 min; for ED50: Mus musculus, sc, read-out: ED50 (dose required to reduce the number of writhes by 50%). As for the experimental part:
(A) Analgesic effects upon mice (acetic acid writhing test).
Acetic Acid Mouse Writhing Test
Analgesic effects of the test compounds were determined in mice by use of the acetic acid writhing test described by B. A. Whittle, Brit. J. Pharmacol., 22:246 (1964). In this test, at least 3 groups of 5 male CD-1 mice each were given subcutaneous doses of the test drug dissolved in distilled water. In all cases, 0.4 milliliters of a 0.5% V/V acetic acid in distilled water solution was administered intraperitoneally 15 minutes post drug. The number of writhes in a 20 minute interval beginning 5 minutes after the acetic acid injection were determined and compared with the number of writhes in a control group which had received only acetic acid.
Percent inhibition of writhing was calculated as: [formula]
The ED50 dose, i.e., the dose required to reduce the number of writhes by 50%, was determined graphically from a plot of % inhibition as a probit verus log dose. Confidence limits of 95% were calculated on the basis of those results falling in the range 16-84% inhibition. See Lichtfield, J. T. and Wilcoxon, F., J. Pharmacol. Exp. Ther., 96, 99-113 (1949).
For orientation: In writhing tests, fewer writhes than in controls are read as antinociception.

For a further experiment, the system named is rats. As to the kind of experiment: Narcotic antagonist activity, modified rat tail flick test (against ED80 dose of morphine). The experiment is classed as in vivo, male albino Wistar rats. To be noted: ip, test drug intraperitoneally, ED80 dose of morphine s.c. 10 min later, retest 20 min after morphine, read-out: AD50 (dose required to inhibit the effect of morphine by 50%). As for the experimental part: (B) Narcotic antagonist activity in rats (modified rat tail flick test).
Evaluation of Narcotic Antagonist Activity
The narcotic antagonist effect of the test compound was determined by a modification of the rat tail flick procedure of Harris and Pierson (J. Pharmacol. Exp. Ther., 143:141 [1964]).
Male albino Wistar rats (100-120 g) were used for this study. A rat's tail is so placed so as to cover a photocell. Heat is applied by a lamp in a reflector with a timer being connected to the lamp and photocell so that the timer goes on when the light is turned on and is turned off when the photocell is uncovered. A rheostat, incorporated into a heating lamp, is used to adjust the intensity of the light falling on the tail of the rat such that the rat's control reaction time is from 2 to 4 seconds. Animals with a control reaction time outside this range are rejected. The rheostat adjustment is made only if a significant proportion (1 out of every 10 rats) of the reaction times are outside the range of 2 to 4 seconds. Groups of 5 rats were used, and 2 control times were determined at 60 and 30 minutes prior to […] injection of the drug.
At least 30 minutes after the last control run the test drug was given intraperitoneally. This was followed 10 minutes later by an ED80 dose of morphine subcutaneously. The animals were retested at 20 minutes after the morphine injection. Control animals were given vehicle and morphine only. The data were calculated as follows: [formula]
The data were plotted on log-probit paper and AD50 values, i.e., the dose required to inhibit the effect of morphine by 50% within 95% confidence limits, were determined by the method of Lichtfield and Wilcoxon.
For orientation: Hot-plate and tail-flick tests time the reaction to a heat stimulus.

In the case of `CCOC(=O)C1C[C@H]2[C@H]3Cc4ccc(OC)cc4[C@@]2(CCN3CC2CC2)CC1=O` (stereo partly drawn) [TR-5299, 7-carboethoxy-17-cyclopropylmethyl-3-methoxy-morphinan-6-one], the ED50 in the experiment on mice was > 10 mg/kg; with rats, 13 mg/kg.

In the case of `CCOC(=O)C1CC2C3Cc4ccc(OC)cc4C2(CCN3CC2CCC2)CC1=O` (stereo not drawn) [TR-5300, 7-carboethoxy-17-cyclobutylmethyl-3-methoxy-morphinan-6-one], the “ED50 (dose required to reduce the number of writhes by 50%)” value in the experiment with mice was “IA 10.0”. Besides, the ED50 with rats amounted to 13 mg/kg.

For `CCOC(=O)C1C[C@H]2[C@H]3Cc4ccc(O)cc4[C@@]2(CCN3CC2CCC2)CC1=O` (stereo partly drawn) [TR-5307, 7-carboethoxy-17-cyclobutylmethyl-3-hydroxy-morphinan-6-one], the ED50 in the experiment on mice was 1.15 mg/kg; in the experiment with rats it was > 10 mg/kg.

With `CCOC(=O)C1C[C@H]2[C@H]3Cc4ccc(O)cc4[C@@]2(CCN3CC2CC2)CC1=O` (stereo partly drawn) [TR-5308, 7-carboethoxy-17-cyclopropylmethyl-3-hydroxy-morphinan-6-one], the figures for the ED50 in the experiment on mice and with rats were 4.9 mg/kg and 3.12 mg/kg, respectively.

Take `CCOC(=O)C1C[C@H]2[C@H]3Cc4ccc(OC)cc4[C@@]2(CCN3C)CC1=O` (stereo partly drawn) [TR-5318, 7-carboethoxy-3-methoxy-17-methylmorphinan-6-one]: the ED50 in the experiment on mice is 4.6 mg/kg.

On to `CCOC(=O)C1C[C@H]2[C@H]3Cc4ccc(O)cc4[C@@]2(CCN3C)CC1=O` (stereo partly drawn) [TR-5320, 7-carboethoxy-3-hydroxy-17-methylmorphinan-6-one], for which the ED50 in the experiment with mice was determined as 0.72 mg/kg; in the experiment on rats it was 3.6 mg/kg.

As to `CCOC(=O)C1C[C@@H]2[C@H]3Cc4ccc(OC)cc4[C@@]2(CCN3C)CC1=O` (stereo partly drawn) [TR-5336, 7-carboethoxy-3-methoxy-17-methyl-14α-morphinan-6-one], in the experiment on mice, the ED50 is > 10 mg/kg.

Turning to `CCOC(=O)C1C[C@@H]2[C@H]3Cc4ccc(OC)cc4[C@@]2(CCN3CC2CC2)CC1=O` (stereo partly drawn) [TR-5337, 7-carboethoxy-17-cyclopropylmethyl-3-methoxy-14α-morphinan-6-one], the “ED50 (dose required to reduce the number of writhes by 50%)” value in the experiment with mice was “IA 10.0”. For the same compound, in the experiment on rats, the ED50 is > 10 mg/kg.

Regarding `CCOC(=O)C1C[C@@H]2[C@H]3Cc4ccc(O)cc4[C@@]2(CCN3C)CC1=O` (stereo partly drawn) [TR-5338, 7-carboethoxy-3-hydroxy-17-methyl-14α-morphinan-6-one], the ED50 amounted to 0.6 mg/kg with mice and 0.7 mg/kg in the experiment on rats.

With `CCOC(=O)C1C[C@@H]2[C@H]3Cc4ccc(O)cc4[C@@]2(CCN3CC2CC2)CC1=O` (stereo partly drawn) [TR-5339, 7-carboethoxy-17-cyclopropylmethyl-3-hydroxy-14α-morphinan-6-one], the ED50 with mice came out at 3.7 mg/kg; with rats it was 2.54 mg/kg.
